The values below come from US8481752B2, “Fluorescent imaging with substituted cyanine dyes” (Li-Cor, Inc., priority 2009, dated 2013).

Series [1] can be described thus: Photostability on nitrocellulose under repeated Odyssey scans. It counts as physicochemical. As to conditions: for relative fluorescence with additional scans: as GAR conjugates on nitrocellulose, normalized to first scan, 100 scans. As to the method:
The photostability of compound 8 was compared to that of Alexa Fluor 680 and IRDye 700DX. IRDye 700DX is one of the most photostable 700 nm fluorescent dyes known. Test samples were prepared by spotting equimolar amounts of dye-labeled conjugates (i.e., goat anti-rabbit (GAR) secondary antibodies labeled with the appropriate dye) onto nitrocellulose membrane. The membrane was then scanned repeatedly on an Odyssey Infrared Imager, so that the prolonged exposure of the dyes to the laser source induced some photodegradation. The signal intensity for each dye was normalized to the signal in the first scan for that dye (FIG. 9A-B).

The nature of series [2]: Water solubility of the dye. It counts as physicochemical.

On to `CC1(C)C(/C=C/C(=C/C=C2/N(CCCS(=O)(=O)O)c3ccc4c(S(=O)(=O)[O-])cc(S(=O)(=O)O)cc4c3C2(C)C)c2cccc(CCCCC(=O)O)c2)=[N+](CCCS(=O)(=O)O)c2ccc3c(S(=O)(=O)O)cc(S(=O)(=O)O)cc3c21` [Compound 8, Sodium 2-((1E,3Z,5E)-3-(3-(4-Carboxybutyl)phenyl)-5-(1,1-dimethyl-6,8-disulfonato-3-(3-sulfonatopropyl)-1H-benzo[e]indol-2(3H)-ylidene)penta-1,3-dienyl)-1,1-dimethyl-3-(3-sulfonatopropyl)-1H-benzo[e]indolium-6,8-disulfonate], for which the resistance to photodegradation entry in series [1] (as GAR conjugate) is reported as “good resistance to photodegradation”. Also, the “relative fluorescence with additional scans” value in series [1] is reported as “decreased slightly”. Besides, in series [2], the water solubility result is “highly water-soluble”.

Take `C[Si](C)(CCC[N+](CCCS(=O)(=O)[O-])(CCCS(=O)(=O)[O-])CCCS(=O)(=O)[O-])O[Si]1(O[Si](C)(C)CCC[N+](CCCS(=O)(=O)[O-])(CCCS(=O)(=O)[O-])CCCS(=O)(=O)[O-])n2c3c4ccccc4c2N=C2N=C(N=c4c5ccccc5c(n41)=NC1=NC(=N3)c3ccccc31)c1cccc(OCCCOC(=O)NCCCCCC(=O)ON3C(=O)CCC3=O)c12.[Na+].[Na+].[Na+].[Na+]` (stereo not shown) [IRDye 700DX]: the “relative fluorescence with additional scans” value in series [1] is recorded as “essentially unchanged”.
